Biological target: T1, LXRβ (Homo sapiens, UniProt P55055)
T1 construct: Co-transfection expression plasmids, comprising full-length LXRα (pCMX-h LXRα[…] or LXRβ (pCMX-hLXRβ)); expressed in transfected cells; host or cells: CV-1 African Green Monkey Kidney Cells
T1 sequence (P55055 1-460): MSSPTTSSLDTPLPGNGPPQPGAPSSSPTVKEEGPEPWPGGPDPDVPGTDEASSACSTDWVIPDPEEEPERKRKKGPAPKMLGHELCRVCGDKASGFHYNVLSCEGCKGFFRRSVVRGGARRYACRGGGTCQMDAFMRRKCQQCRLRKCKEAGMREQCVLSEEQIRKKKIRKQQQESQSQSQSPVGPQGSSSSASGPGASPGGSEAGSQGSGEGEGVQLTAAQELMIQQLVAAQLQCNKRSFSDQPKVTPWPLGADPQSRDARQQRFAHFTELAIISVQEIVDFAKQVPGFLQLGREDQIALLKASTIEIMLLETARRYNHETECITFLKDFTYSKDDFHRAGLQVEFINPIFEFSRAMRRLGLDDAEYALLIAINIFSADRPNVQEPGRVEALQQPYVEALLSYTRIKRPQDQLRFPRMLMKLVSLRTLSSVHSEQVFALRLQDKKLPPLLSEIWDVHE
T1 sequence (P19793 1-462 partner): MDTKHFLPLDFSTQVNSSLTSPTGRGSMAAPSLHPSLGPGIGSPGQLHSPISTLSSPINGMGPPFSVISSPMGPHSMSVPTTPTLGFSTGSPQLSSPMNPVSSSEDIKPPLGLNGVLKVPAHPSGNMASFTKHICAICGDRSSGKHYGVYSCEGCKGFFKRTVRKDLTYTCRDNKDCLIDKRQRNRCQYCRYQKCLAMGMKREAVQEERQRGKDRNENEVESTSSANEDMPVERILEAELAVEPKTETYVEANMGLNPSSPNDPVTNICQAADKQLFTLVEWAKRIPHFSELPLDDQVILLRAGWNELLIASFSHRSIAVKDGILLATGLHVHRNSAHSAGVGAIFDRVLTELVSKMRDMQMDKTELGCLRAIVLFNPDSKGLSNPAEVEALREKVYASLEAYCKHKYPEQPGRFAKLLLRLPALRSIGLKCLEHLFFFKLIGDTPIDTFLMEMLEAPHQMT
Test: Co-transfection assay (LXRE luciferase reporter), LXRβ
Assay type: cell-based
Settings: for EC50: CV-1 cells transfected with pCMX-hLXRβ and LXREx1-Tk-Luciferase, 20 hours incubation; for Emax: LXRβ co-transfection, relative to high control 1-(2,4-difluorobenzyl)-2-oxo-6-(4-phenoxyphenyl)-4-(trifluoromethyl)-1,2-dihydropyridine-3-carbonitrile, read-out: % Efficacy
From the text: To measure the ability of compounds to activate or inhibit the transcriptional activity of LXR in a cell based assay, the co-transfection assay was used. It has been shown that LXR functions as a heterodimer with RXR. For the co-transfection assay, expression plasmids for LXRα and LXRβ are introduced separately via transient transfection into mammalian cells along with a luciferase reporter plasmid that contains one copy of a DNA sequence that is bound by LXR-RXR heterodimers (LXRE; Willy, P. et. al. 1995). LXRs heterodimerize with the endogenous RXR. Treatment of transfected cells with an LXR agonist increases the transcriptional activity of LXR, which is measured by an increase in luciferase activity.
CV-1 African Green Monkey Kidney Cells
Co-transfection expression plasmids, comprising full-length LXRα (pCMX-h LXRα[…] or LXRβ (pCMX-hLXRβ), reporter plasmid (LXREx1-Tk-Luciferase), and control (pCMX-Galactosidase expression vector) (Willey et al. Genes & Development 9 1033-1045 (1995)).
CV-1 cells were prepared 24 hours prior to the experiment by plating them into T-175 flasks or 500 cm^2 dishes in order to achieve 70-80% confluency on the day of the transfection. The number of cells to be transfected was determined by the number of plates to be screened. Each well of a 384 well plate requires 1.5×10^4 cells. DNA Transfection Reagent was prepared by mixing the required plasmid DNAs with a cationic lipid transfection reagent Transit 2020 (Mirus Bio) for CV1 by following the instructions provided with the reagents. Optimal DNA amounts were determined empirically per cell line and size of vessel to be transfected. For each T175 cm^2 flask a total of 59 ug for CV1 of DNA, 133 uL Transit2020 and 4.5 mL DMEM for CV1 was mixed and added. Cells were then incubated at least 5 hours at 37° C. to prepare screening cells.
Luciferase assay reagent (*Steady-Glo Luciferase Assay System by Promega, CAT#E2550) was prepared by combining before use:
Assay plates were prepared by dispensing 5 μL of compound per well of a 384 well plate to achieve final compound concentration of 10 μM and no more than 0.5% DMSO. Media was removed from the screening cells, the cells trypsinized, harvested cells by centrifugation, counted, and plated at a density of approximately 1.5×10^4 cells in the 384 well assay plate prepared above in a volume of about 95 uL. Assay plates containing both compounds and screening cells (100 μL in total volume) were incubated for 20 hours at 37° C.
After incubation with compounds, media was removed from the cells and luciferase assay reagent (50 μL/well) added. After ˜2 minutes at ambient temperature, the assay plates were read on a luminometer (PE Biosystems Northstar reader with on-board injectors, or Envision(Perkin Elmer) or equivalent).
The LXR/LXRE co-transfection assay can be used to establish the EC50/IC50 values for potency and percent activity or inhibition for efficacy. Efficacy defines the activity of a compound relative to a high control 1-(2,4-difluorobenzyl)-2-oxo-6-(4-phenoxyphenyl)-4-(trifluoromethyl)-1,2-dihydropyridine-3-carbonitrileor a low control (DMSO/vehicle). The dose response curves are generated from a 11 point curve with concentrations differing by ½ LOG units. Each point represents the average of 2 wells of data from duplicate 384 well plate.
The data from this assay is fitted to the following equation, from which the EC50 value may be solved: Y=Bottom+(Top−Bottom)/(1+10^((logEC50-X)*HillSlope)).
The EC50/IC50 is therefore defined as the concentration at which an agonist or antagonist elicits a response that is halfway between the Top (maximum) and Bottom (baseline) values. The EC50/IC50 values represented are the averages of at least 2 and normally 3 independent experiments. […]

EC50 [nM]	Emax [%]	SMILES
462	65	Cc1nc(-c2cc(-c3cccc(S(C)(=O)=O)c3)ccc2-n2cc(C(F)(F)F)nc2C)c(-c2cc(Cl)ccn2)o1 [Example 434, 5-(4-chloropyridin-2-yl)-2-methyl-4-(4-(2-methyl-4-(trifluoromethyl)-1H-imidazol-1-yl)-3′-(methylsulfonyl)biphenyl-3-yl)oxazole]
1480	74	CCC(F)(F)c1cn(-c2ccc(-c3cccc(S(N)(=O)=O)c3)cc2-n2nncc2-c2ccc(OC(F)(F)F)cc2)c(C)n1 [Example 183, 4′-[4-(1,1-difluoropropyl)-2-methyl-1H-imidazol-1-yl]-3′-(5-{4-[(trifluoromethyl)oxy]phenyl}-1H-1,2,3-triazol-1-yl)biphenyl-3-sulfonamide]
358	85	Cc1nc(-c2cc(-c3cccc(S(C)(=O)=O)c3)ccc2-n2cc(C(F)(F)F)nc2C)c(-c2ccc(Cl)cn2)o1 [Example 431, 5-(5-chloropyridin-2-yl)-2-methyl-4-(4-(2-methyl-4-(trifluoromethyl)-1H-imidazol-1-yl)-3′-(methylsulfonyl)biphenyl-3-yl)oxazole]
500	69	Cc1nc(C(F)(F)F)cn1-c1ccc(-c2cccc(S(C)(=O)=O)c2)cc1-n1nncc1-c1ccc(Cl)cc1Cl [Example 76, 5-(2,4-dichlorophenyl)-1-{3′-(methylsulfonyl)-4-[2-methyl-4-(trifluoromethyl)-1H-imidazol-1-yl]biphenyl-3-yl}-1H-1,2,3-triazole]
216	102	Cc1nc(C(F)F)cn1-c1ccc(-c2cccc(S(C)(=O)=O)c2)cc1-c1cnnn1Cc1ccc(Cl)cc1 [Example 245, 1-(4-chlorobenzyl)-5-(4-(4-(difluoromethyl)-2-methyl-1H-imidazol-1-yl)-3′-(methylsulfonyl)-[1,1′-biphenyl]-3-yl)-1H-1,2,3-triazole]
1770	63	Cc1nc(C(F)(F)F)cn1-c1ccc(-c2cc(F)c(CO)c(S(C)(=O)=O)c2)cc1-n1nncc1C(C)(C)c1ccc(Cl)cc1 [Example 223, (3′-(5-(2-(4-chlorophenyl)propan-2-yl)-1H-1,2,3-triazol-1-yl)-3-fluoro-4′-(2-methyl-4-(trifluoromethyl)-1H-imidazol-1-yl)-5-(methylsulfonyl)-[1,1′-biphenyl]-4-yl)methanol]

The next lines start with the compound.

SMILES	EC50 [nM]	Emax [%]
Cc1nc(C(F)(F)F)cn1-c1ccc(-c2cc(F)c(CO)c(S(C)(=O)=O)c2)cc1-c1nc(C(F)(F)F)cn1-c1ccc(Cl)cc1 [Example 645, (3′-(1-(4-chlorophenyl)-4-(trifluotomethyl)-1H-imidazol-2-yl)-3-fluoro-4′-(2-methyl-4-(trifluoromethyl)-1H-imidazol-1-yl)-5-(methylsulfonyl)biphenyl-4-yl)methanol]	144	32
Cc1nc(-c2cc(-c3cc(F)c(CO)c(S(C)(=O)=O)c3)ccc2-n2cc(C(F)(F)F)nc2C)c(-c2cccnc2Cl)o1 [Example 549, (3′-(5-(2-chloropyridin-3-yl)-2-methyloxazol-4-yl)-3-fluoro-4′-(2-methyl-4-(trifluoromethyl)-1H-imidazol-1-yl)-5-(methylsulfonyl)-[1,1′-biphenyl]-4-yl)methanol]	483	87
Cc1nc(-c2cc(-c3cccc(C(=O)N(C)C)c3)ccc2-n2cc(C(F)(F)F)nc2C)c(-c2ccc(OC(F)F)c(F)c2)o1 [Example 442, 3′-(5-(4-(difluoromethoxy)-3-fluorophenyl)-2-methyloxazol-4-yl)-N,N-dimethyl-4′-(2-methyl-4-(trifluoromethyl)-1H-imidazol-1-yl)biphenyl-3-carboxamide]	729	58
Cc1nc(C(F)F)cn1-c1ccc(-c2cccc(S(=O)(=O)N(C)C)c2)cc1-n1nncc1-c1ccc(OC(F)(F)F)cc1 [Example 155, 4′-[4-(difluoromethyl)-2-methyl-1H-imidazol-1-yl]-N,N-dimethyl-3′-(5-{4-[(trifluoromethyl)oxy]phenyl}-1H-1,2,3-triazol-1-yl)biphenyl-3-sulfonamide]	701	93
Cc1nc(C(F)(F)F)cn1-c1ccc(-c2cc(F)c(CO)c(S(C)(=O)=O)c2)cc1-c1nc(CCO)oc1-c1ccc(OC(F)(F)F)cc1 [Example 525, 2-(4-(3′-fluoro-4′-(hydroxymethyl)-4-(2-methyl-4-(trifluoromethyl)-1H-imidazol-1-yl)-5′-(methylsulfonyl)-[1,1′-biphenyl]-3-yl)-5-(4-(trifluoromethoxy)phenyl)oxazol-2-yl)ethanol]	650	67
Cc1nc(-c2cc(-c3cccc(S(C)(=O)=O)c3)ccc2-n2cc(C(F)(F)F)nc2C)c(-c2cc(F)cc(Cl)c2)o1 [Example 449, 5-(3-chloro-5-fluorophenyl)-2-methyl-4-(4-(2-methyl-4-(trifluoromethyl)-1H-imidazol-1-yl)-3′-(methylsulfonyl)biphenyl-3-yl)oxazole]	183	57
Cc1nc(C(F)(F)F)cn1-c1ccc(-c2cc(F)c(CO)c(S(C)(=O)=O)c2)cc1-n1nncc1C(=O)c1cccc(C(F)(F)F)c1 [Example 136, (1-{3′-fluoro-4′-(hydroxymethyl)-5′-(methylsulfonyl)-4-[2-methyl-4-(trifluoromethyl)-1H-imidazol-1-yl]biphenyl-3-yl}-1H-1,2,3-triazol-5-yl)[3-(trifluoromethyl)phenyl]meth-anone]	764	69
CNS(=O)(=O)c1cccc(-c2ccc(-n3cc(C(F)(F)F)nc3C)c(-c3nc(C)oc3-c3ccc(OC(F)F)cc3)c2)c1 [Example 540, 3′-(5-(4-(difluoromethoxy)phenyl)-2-methyloxazol-4-yl)-N-methyl-4′-(2-methyl-4-(trifluoromethyl)-1H-imidazol-1-yl)-[1,1′-biphenyl]-3-sulfonamide]	28	106

Reference: patent publication US9834542B2, “LXR modulators” (BRISTOL-MYERS SQUIBB COMPANY, priority 2013, dated 2017)
